Values after ≈ are worked out from the molar mass of the structure shown.
What was measured:
Candida tropicalis = test: Antifungal activity against Candida tropicalis; format: functional
Candida albicans = test: Antifungal activity against Candida albicans; format: functional
Nakaseomyces glabratus = test: Antifungal activity against Candida glabrata; format: functional
DU-145 = test: Cytotoxicity against human DU-145 cells incubated for 48 hrs by MTT assay; format: functional, cell-based; settings: DU-145, 48 h
MCF7 [1] = test: Cytotoxicity against human MCF7 cells incubated for 48 hrs by MTT assay; format: functional, cell-based; settings: MCF7, 48 h
HeLa [2] = test: Cytotoxicity against human HeLa cells incubated for 48 hrs by MTT assay; format: functional, cell-based
A549 [3] = test: Cytotoxicity against human A549 cells incubated for 48 hrs by MTT assay; format: functional, cell-based; settings: A549, 48 h
Escherichia coli [4] = test: Antibacterial activity against Escherichia coli assessed as zone of inhibition; format: functional
Staphylococcus aureus [5] = test: Antibacterial activity against Staphylococcus aureus assessed as zone of inhibition; format: functional
Acetylcholinesterase = Acetylcholinesterase (Homo sapiens, UniProt P22303); test: Inhibition of AChE (unknown origin)
Cholinesterase = Cholinesterase (Homo sapiens, UniProt P06276); test: Inhibition of BChE (unknown origin)
Staphylococcus aureus [6] = test: Antibacterial activity against Staphylococcus aureus ATCC 25923; format: functional
[7] = test system: Staphylococcus epidermidis; test: Antibacterial activity against Staphylococcus epidermidis ATCC 12228; format: functional
Pseudomonas aeruginosa [8] = test: Antibacterial activity against Pseudomonas aeruginosa ATCC 85327; format: functional
Klebsiella pneumoniae = test: Antibacterial activity against Klebsiella pneumoniae ATCC 29655; format: functional
Enterococcus faecalis = test: Antibacterial activity against Enterococcus faecalis ATCC 29737; format: functional
Streptococcus mutans = test: Antibacterial activity against Streptococcus mutans PTCC 1601; format: functional
Bacillus pumilus = test: Antibacterial activity against Bacillus pumilus PTCC 1114; format: functional
Bacillus subtilis = test: Antibacterial activity against Bacillus subtilis ATCC 465; format: functional
Micrococcus luteus = test: Antibacterial activity against Micrococcus luteus PTCC 1110; format: functional
Escherichia coli [9] = test: Antimicrobial activity against Escherichia coli ATCC 25922; format: functional
MDA-MB-231 = test: Antiproliferative activity against human MDA-MB-231 cells by MTT reduction assay; format: functional, cell-based
MCF7 [10] = test: Antiproliferative activity against human MCF7 cells by MTT reduction assay; format: functional, cell-based
T47D = test: Antiproliferative activity against human T47D cells by MTT reduction assay; format: functional, cell-based
PC-3 = test: Antiproliferative activity against human PC-3 cells; format: functional, cell-based
LNCaP = test: Antiproliferative activity against human LNCaP cells; format: functional, cell-based
Pseudomonas aeruginosa [11] = test: Antibacterial activity against Pseudomonas aeruginosa NCIM 5029 by microdilution broth method; format: functional
Salmonella sp. = test: Antibacterial activity against Salmonella sp. NCIM 2501 by microdilution broth method; format: functional
Proteus vulgaris = test: Antibacterial activity against Proteus vulgaris NCIM 2813 by microdilution broth method; format: functional
Staphylococcus aureus [12] = test: Antibacterial activity against Staphylococcus aureus NCIM5021 by microdilution broth method; format: functional
Escherichia coli [13] = test: Antibacterial activity against Escherichia coli NCIM 2931 by microdilution broth method; format: functional
SMMC-7721 = test: Antiproliferative activity against human SMMC-7721 cells; format: functional, cell-based
MGC-803 = test: Antiproliferative activity against human MGC-803 cells; format: functional, cell-based
ECa-109 cell line = test: Antiproliferative activity against human EC109 cells; format: functional, cell-based
HeLa [14] = test: Cytotoxicity against human HeLa cells; format: functional, cell-based
Aspergillus niger = test: Antifungal activity against Aspergillus niger assessed as zone of inhibition at 25 ug/ml; format: functional; settings: read-out: DIZ
Candida metapsilosis = test: Antifungal activity against Candida metapsilosis assessed as zone of inhibition at 25 ug/ml; format: functional; settings: Lodderomyces metapsilosis, read-out: DIZ
K562 = test: Anticancer activity against human K562 cells by MTT assay; format: functional, cell-based
A549 [15] = test: Anticancer activity against human A549 cells by MTT assay; format: functional, cell-based

Sequence of Cholinesterase (P06276 whole entry): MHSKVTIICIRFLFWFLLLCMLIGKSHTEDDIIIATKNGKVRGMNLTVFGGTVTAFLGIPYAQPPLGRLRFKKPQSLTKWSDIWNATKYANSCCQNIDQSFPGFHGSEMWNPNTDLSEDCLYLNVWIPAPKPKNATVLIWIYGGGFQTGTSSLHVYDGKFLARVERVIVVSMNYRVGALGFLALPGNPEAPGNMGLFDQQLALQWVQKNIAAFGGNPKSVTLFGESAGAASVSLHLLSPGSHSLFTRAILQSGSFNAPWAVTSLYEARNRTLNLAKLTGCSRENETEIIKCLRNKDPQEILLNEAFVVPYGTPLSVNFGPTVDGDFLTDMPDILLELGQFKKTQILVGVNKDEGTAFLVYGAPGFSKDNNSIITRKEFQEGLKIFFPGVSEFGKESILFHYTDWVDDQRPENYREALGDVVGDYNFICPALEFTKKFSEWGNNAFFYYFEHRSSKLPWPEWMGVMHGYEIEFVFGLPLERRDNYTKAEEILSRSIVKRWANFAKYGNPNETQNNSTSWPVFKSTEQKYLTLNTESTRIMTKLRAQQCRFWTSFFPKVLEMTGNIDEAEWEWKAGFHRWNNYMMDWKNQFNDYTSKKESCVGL
Sequence of Acetylcholinesterase (P22303 whole entry): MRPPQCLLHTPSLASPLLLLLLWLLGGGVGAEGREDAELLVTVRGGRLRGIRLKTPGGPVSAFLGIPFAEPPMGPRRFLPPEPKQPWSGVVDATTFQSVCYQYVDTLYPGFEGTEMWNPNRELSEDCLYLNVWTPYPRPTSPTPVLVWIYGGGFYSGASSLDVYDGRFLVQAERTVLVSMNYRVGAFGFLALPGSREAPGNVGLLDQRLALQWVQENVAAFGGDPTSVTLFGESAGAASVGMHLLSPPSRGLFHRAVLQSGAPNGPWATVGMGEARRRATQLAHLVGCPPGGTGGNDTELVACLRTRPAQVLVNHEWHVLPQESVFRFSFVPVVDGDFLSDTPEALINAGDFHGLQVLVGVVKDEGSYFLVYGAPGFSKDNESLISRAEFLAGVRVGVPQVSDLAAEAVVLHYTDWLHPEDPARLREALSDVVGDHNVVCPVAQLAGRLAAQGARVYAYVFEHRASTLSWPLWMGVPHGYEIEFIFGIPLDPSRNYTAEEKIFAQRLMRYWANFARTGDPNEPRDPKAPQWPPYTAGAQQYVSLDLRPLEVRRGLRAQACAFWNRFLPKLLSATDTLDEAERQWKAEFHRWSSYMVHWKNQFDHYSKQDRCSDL

**Q.** Which MIC (Candida tropicalis) does the source give for `COc1ccccc1C1C2CCCN2C2(C(=O)Nc3ccccc32)C1C(=O)c1ccc(-c2ccc(F)cc2F)cc1` (stereo unspecified) here?
**A.** 12.5 mg/L (≈ 22.7 µM)

**Q.** And the MIC (Candida albicans)?
**A.** 12.5 mg/L (≈ 22.7 µM)

**Q.** What about the MIC (Nakaseomyces glabratus) of the same molecule?
**A.** 12.5 mg/L (≈ 22.7 µM)

**Q.** For `O=C1OCC2=C1C1(Nc3ccc(Cl)cc3N2)C(=O)Nc2ccccc21` (stereo unspecified), which IC50 (DU-145) is on record?
**A.** 1.7 µM

**Q.** What about the IC50 (MCF7 [1]) of the same molecule?
**A.** 9.5 µM

**Q.** What about the IC50 (HeLa [2]) of the same molecule?
**A.** 5.4 µM

**Q.** And the IC50 (A549 [3])?
**A.** 2.9 µM

**Q.** For `CCOC1=Nc2ccc(Br)cc2/C1=C\C(=O)c1cccc2ccccc12`, which “diameter of the inhibition zone (DIZ)” value (Escherichia coli [4]) is on record?
**A.** 6 mm

**Q.** And the “diameter of the inhibition zone (DIZ)” value (Staphylococcus aureus [5])?
**A.** 6 mm

**Q.** How did the IC50 (Acetylcholinesterase) turn out when `COc1cc2c(cc1OC)C(=O)[C@]1(C2)[C@H](c2ccccc2OC)[C@H](Cc2c[nH]c3ccccc23)NC12C(=O)Nc1ccccc12` (stereo partly specified) was run?
**A.** 2.76 µM

**Q.** And the IC50 (Cholinesterase)?
**A.** 24 µM

**Q.** How did the MIC (Staphylococcus aureus [6]) turn out when `O=C1c2ccccc2NC2(C(=O)Nc3ccc([N+](=O)[O-])cc32)N1Nc1ccccc1` (stereo unspecified) was run?
**A.** 4 mg/L (≈ 9.97 µM)

**Q.** What about the MIC [7] of the same molecule?
**A.** 4 mg/L (≈ 9.97 µM)

**Q.** And the MIC (Pseudomonas aeruginosa [8])?
**A.** 32 mg/L (≈ 79.7 µM)

**Q.** What about the MIC (Klebsiella pneumoniae) of the same molecule?
**A.** 8 mg/L (≈ 19.9 µM)

**Q.** And the MIC (Enterococcus faecalis)?
**A.** 16 mg/L (≈ 39.9 µM)

**Q.** What about the MIC (Streptococcus mutans) of the same molecule?
**A.** < 2 mg/L

**Q.** What about the MIC (Bacillus pumilus) of the same molecule?
**A.** 4 mg/L (≈ 9.97 µM)

**Q.** What about the MIC (Bacillus subtilis) of the same molecule?
**A.** 4 mg/L (≈ 9.97 µM)

**Q.** And the MIC (Micrococcus luteus)?
**A.** 8 mg/L (≈ 19.9 µM)

**Q.** And the MIC (Escherichia coli [9])?
**A.** 4 mg/L (≈ 9.97 µM)

**Q.** Which results are given for `O=C(c1ccc(OCCN2CCC2)cc1)[C@H]1[C@H](c2ccccc2)C2CS[C@H](c3ccccc3)N2C12C(=O)Nc1ccc(Cl)cc12` (stereo partly specified)?
**A.** IC50 (MDA-MB-231): 4.2 µM; IC50 (MCF7 [10]): 3.7 µM; IC50 (T47D): 4.7 µM

**Q.** What does the source list for `O=C1c2ccccc2C2Oc3c(c(=O)oc4ccccc34)C3(C(=O)N(c4ccc(Cl)cc4)c4ccccc43)C12` (stereo unspecified)?
**A.** IC50 (PC-3): 0.08 µM; IC50 (LNCaP): 1.3 µM

**Q.** Which results are given for `CCOC1=Nc2ccc(Br)cc2/C1=C\C(=O)c1ccccc1`?
**A.** diameter of the inhibition zone (DIZ) (Escherichia coli [4]): 6 mm; diameter of the inhibition zone (DIZ) (Staphylococcus aureus [5]): 7 mm

**Q.** With `O=C1Nc2ccccc2[C@@]1(O)[C@@]1(OCc2ccc(Br)cc2)C(=O)Nc2ccccc21` as the molecule, how does the MIC (Pseudomonas aeruginosa [11]) read?
**A.** 0.067 mg/L (≈ 0.144 µM)

**Q.** What about the MIC (Salmonella sp.) of the same molecule?
**A.** 0.034 mg/L (≈ 0.0731 µM)

**Q.** And the MIC (Proteus vulgaris)?
**A.** 0.067 mg/L (≈ 0.144 µM)

**Q.** What about the MIC (Staphylococcus aureus [12]) of the same molecule?
**A.** 0.067 mg/L (≈ 0.144 µM)

**Q.** And the MIC (Escherichia coli [13])?
**A.** 0.034 mg/L (≈ 0.0731 µM)

**Q.** What does the source list for `CC(O)(CS(=O)(=O)c1ccc(F)cc1)C(=O)Nc1ccc(C#N)c(C(F)(F)F)c1` (stereo unspecified) [BICALUTAMIDE]?
**A.** IC50 (PC-3): 1.3 µM; IC50 (LNCaP): 1.5 µM

**Q.** What does the source list for `C[C@]12CC[C@H](O)CC1=CCC1C2CC[C@@]2(C)C1CC[C@@H]2C1=CC2(C(=O)Nc3ccc(Cl)cc32)C(C#N)=C(N)N1` (stereo partly specified)?
**A.** IC50 (SMMC-7721): 9.6 µM; IC50 (MGC-803): 4.2 µM; IC50 (ECa-109 cell line): 3.8 µM

**Q.** With `C[C@]12CC[C@H](O)CC1=CCC1C2CC[C@@]2(C)C1CC[C@@H]2C1=CC2(C(=O)N(Cc3ccc(Cl)c(Cl)c3)c3ccccc32)C(C#N)=C(N)N1` (stereo partly specified) as the molecule, how does the IC50 (SMMC-7721) read?
**A.** > 128 µM

**Q.** And the IC50 (MGC-803)?
**A.** > 128 µM

**Q.** What about the IC50 (ECa-109 cell line) of the same molecule?
**A.** 0.3 µM

**Q.** What does the source list for `O=C1OCC2=C1C1(Nc3ccccc3N2)C(=O)N(Cc2ccccc2)c2ccccc21` (stereo unspecified)?
**A.** IC50 (DU-145): 1.1 µM; IC50 (MCF7 [1]): 2.2 µM; IC50 (HeLa [2]): 2.3 µM; IC50 (A549 [3]): 1.3 µM

**Q.** What does the source list for `COc1cc2c(cc1OC)C(=O)[C@]1(C2)[C@H](c2ccc(C)cc2)[C@H](Cc2c[nH]c3ccccc23)NC12C(=O)Nc1ccccc12` (stereo partly specified)?
**A.** IC50 (Acetylcholinesterase): 14.2 µM; IC50 (Cholinesterase): 2.24 µM

**Q.** Which IC50 (HeLa [14]) does the source give for `CCN(CC)CCNC(=O)c1c(C)[nH]c(/C=C2\C(=O)Nc3ccc(F)cc32)c1C` [SUNITINIB] here?
**A.** > 30 µM

**Q.** Which results are given for `COC1=CC(=O)C[C@@H](C)[C@]12Oc1c(Cl)c(OC)cc(OC)c1C2=O` [GRISEOFULVIN]?
**A.** zone of inhibition at 25 µg/mL (Aspergillus niger): 10 mm; zone of inhibition at 25 µg/mL (Candida metapsilosis): 10 mm

**Q.** What does the source list for `CC(C)=CC(=O)[C@H]1[C@H](c2ccc(Br)cc2)CN(C)[C@]12C(=O)Nc1ccc(C)cc12`?
**A.** IC50 (K562): 5.8 µM; IC50 (A549 [15]): 21.1 µM

**Q.** What does the source list for `CCOC1=Nc2ccccc2/C1=C\C(=O)c1ccc([N+](=O)[O-])cc1`?
**A.** zone of inhibition at 25 µg/mL (Aspergillus niger): 11 mm; zone of inhibition at 25 µg/mL (Candida metapsilosis): 11 mm

**Q.** What does the source list for `COc1ccc(CO[C@]2([C@@]3(O)C(=O)Nc4ccccc43)C(=O)Nc3ccccc32)cc1`?
**A.** MIC (Pseudomonas aeruginosa [11]): 0.038 mg/L (≈ 0.0913 µM); MIC (Salmonella sp.): 0.038 mg/L (≈ 0.0913 µM); MIC (Proteus vulgaris): 0.075 mg/L (≈ 0.18 µM); MIC (Staphylococcus aureus [12]): 0.075 mg/L (≈ 0.18 µM); MIC (Escherichia coli [13]): 0.038 mg/L (≈ 0.0913 µM)

**Q.** Which results are given for `CC(C)=CC(=O)[C@H]1[C@H](c2ccc(Br)cc2)CN(C)[C@]12C(=O)Nc1ccc(Br)cc12`?
**A.** IC50 (K562): 5.7 µM; IC50 (A549 [15]): 22.9 µM

Reference: ChEMBL document CHEMBL5226286, “The application of isatin-based multicomponent-reactions in the quest for new bioactive and druglike molecules” (Eur J Med Chem, 2021)
